Experimental data as given in patent publication US8936807B2, “Use of the cathelicidin LL-37 and derivatives thereof for wound healing” (Lipopeptide AB, priority 2003, dated 2015).

System: HaCat cells
Assay: Proliferation and viability of HaCat cells measured by mitochondrial activity (WST-1)
Format: cell-based, human
Conditions: LL-37 100 μg/ml, 10% serum, 48 h
Description: HaCat cells were used for these experiments. HaCat cells are an immortalized human keratinocyte cell line (Boukamp et al., J Cell Biol 106:761-771, 1988), which is suitable for experimental keratinocyte research. HaCat cells were cultured in medium (DMEM, +10% FCS and PEST). Both types of cell cultures were treated with synthetic, bioactive LL-37 (lot YS 5253). In addition a mixture of LL-37 (114 μg/ml) and CPL-Galactolipid (0.2%) in medium containing serum at either 2 or 10% was added to evaluate the capacity to increase proliferation and inhibit cytotoxicity. Cells were harvested at different time-points (24 h, 48 h, 72 h and 96 h) and counted by flowcytometry (Becton-Dickinson) and stained by Trypan-Blue to evaluate viability. […] Proliferation and viability were also ascertained by measuring mitochondrial activity (WST-1, Roche, Cook et al. Anal Biochem 179:1-7, 1989).

LLGDFFRKSKEKIGKEFKRIVQRIKDFLRNLVPRTES [LL-37]
Absorbance: 1.110
Trypan Blue + (%): <1%
Increased Proliferation (%) (vs baseline): 78%
